Our source for the Ki values is patent US20260242353A1, “HETEROARYL DERIVATIVES AS DDRs INHIBITORS” (CHIESI FARMACEUTICI S.P.A., priority 2022, published 2026).

One experiment addresses T1, DDR2 (Homo sapiens, UniProt Q16832).
T1 construct: purchased Life Technologies
T1 sequence (Q16832 22-855): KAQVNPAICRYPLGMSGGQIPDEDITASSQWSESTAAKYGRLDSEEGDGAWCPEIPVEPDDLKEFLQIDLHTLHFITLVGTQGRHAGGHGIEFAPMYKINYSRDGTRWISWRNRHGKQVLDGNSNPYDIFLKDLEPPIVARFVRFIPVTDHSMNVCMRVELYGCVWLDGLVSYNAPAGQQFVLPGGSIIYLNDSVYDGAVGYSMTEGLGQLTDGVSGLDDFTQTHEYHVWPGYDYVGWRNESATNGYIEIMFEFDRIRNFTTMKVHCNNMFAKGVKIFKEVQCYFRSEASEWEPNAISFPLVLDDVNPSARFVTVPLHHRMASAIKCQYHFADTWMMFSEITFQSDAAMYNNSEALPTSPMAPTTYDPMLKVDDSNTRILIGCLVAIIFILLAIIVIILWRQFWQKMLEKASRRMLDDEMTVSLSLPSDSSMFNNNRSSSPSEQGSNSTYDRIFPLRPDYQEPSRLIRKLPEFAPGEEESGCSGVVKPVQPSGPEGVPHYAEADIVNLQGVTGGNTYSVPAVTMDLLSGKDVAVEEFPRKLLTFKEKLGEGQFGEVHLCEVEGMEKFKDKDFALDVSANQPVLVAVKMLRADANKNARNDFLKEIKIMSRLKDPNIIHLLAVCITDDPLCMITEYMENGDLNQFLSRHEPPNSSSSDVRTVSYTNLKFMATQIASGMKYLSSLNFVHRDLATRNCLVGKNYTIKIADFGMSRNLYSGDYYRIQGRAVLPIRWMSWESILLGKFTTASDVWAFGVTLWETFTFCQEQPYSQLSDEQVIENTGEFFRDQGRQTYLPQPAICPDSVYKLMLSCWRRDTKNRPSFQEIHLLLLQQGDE
The experiment can be described thus: LanthaScreen Europium Kinase Binding assay, DDR2. Particulars: 5 nM DDR2, 10 nM Kinase Tracer 178, 1 h at rt; Ki from IC50 by Cheng-Prusoff; read-out: Ki DDR2. In short, it runs like this: (§1)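 Compounds were incubated 1 h at rt with 5 nM DDR1 plus 20 nM Kinase Tracer 178, or 5 nM DDR2 plus 10 nM tracer, and 2 nM Eu anti-GST antibody in HEPES pH 7.5 buffer. Read-out was the TR-FRET 665/615 nm ratio. IC50 came from a 4-parameter fit and was converted to Ki by Cheng-Prusoff.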
(In general: Time-resolved FRET reads energy transfer from a long-lived donor to a nearby acceptor.)

The next experiment addresses T2, DDR1 (Homo sapiens, UniProt Q08345).
T2 construct: purchased Carna Biosciences
Description: LanthaScreen Europium Kinase Binding assay, DDR1. The following applies: 5 nM DDR1, 20 nM Kinase Tracer 178, 1 h at rt; Ki from IC50 by Cheng-Prusoff; read-out: Ki DDR1. The method in brief:
as §1

Structures are written as SMILES.

T2 sequence (Q08345 19-913): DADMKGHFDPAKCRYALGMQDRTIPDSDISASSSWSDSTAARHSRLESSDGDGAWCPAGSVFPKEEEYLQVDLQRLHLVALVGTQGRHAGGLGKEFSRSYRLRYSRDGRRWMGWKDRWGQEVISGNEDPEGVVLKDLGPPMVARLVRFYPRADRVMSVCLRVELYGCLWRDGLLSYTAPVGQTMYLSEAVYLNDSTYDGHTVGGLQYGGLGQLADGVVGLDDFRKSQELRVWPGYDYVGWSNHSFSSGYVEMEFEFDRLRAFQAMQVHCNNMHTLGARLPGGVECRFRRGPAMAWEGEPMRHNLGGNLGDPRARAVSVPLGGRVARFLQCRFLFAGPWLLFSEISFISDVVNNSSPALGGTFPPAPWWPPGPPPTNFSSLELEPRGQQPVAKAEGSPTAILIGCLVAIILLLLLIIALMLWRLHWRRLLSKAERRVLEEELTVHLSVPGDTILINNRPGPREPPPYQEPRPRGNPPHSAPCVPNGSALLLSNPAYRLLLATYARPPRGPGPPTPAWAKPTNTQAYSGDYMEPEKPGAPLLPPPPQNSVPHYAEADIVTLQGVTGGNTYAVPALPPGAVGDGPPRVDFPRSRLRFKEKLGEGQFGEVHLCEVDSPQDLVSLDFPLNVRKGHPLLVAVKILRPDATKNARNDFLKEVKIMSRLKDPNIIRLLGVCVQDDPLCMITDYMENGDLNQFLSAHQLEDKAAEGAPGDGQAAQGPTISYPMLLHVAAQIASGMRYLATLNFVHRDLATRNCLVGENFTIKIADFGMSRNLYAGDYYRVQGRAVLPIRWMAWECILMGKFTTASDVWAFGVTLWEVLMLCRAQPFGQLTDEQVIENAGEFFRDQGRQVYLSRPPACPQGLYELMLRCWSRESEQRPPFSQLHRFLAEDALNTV

By Ki is commonly meant a dissociation constant, usually derived from enzyme kinetics or from competition with a known ligand. Consider `Cc1ccc(C(=O)Nc2cc(C(C)(C)C)on2)cc1[C@@H]1CCN(c2cncnc2)C1` [Example 16, (S)-N-(5-(tert-butyl)isoxazol-3-yl)-4-methyl-3-(1-(pyrimidin-5-yl)pyrrolidin-3-yl)benzamide], for which the Ki on DDR2 and on DDR1 was < 5 nM throughout.
On to `CC(=O)Nc1ccc(OC2CN(c3cc(C(=O)Nc4cncc(C(F)(F)F)c4)ccc3C)C2)cn1` [Example 45, 3-(3-((6-acetamidopyridin-3-yl)oxy)azetidin-1-yl)-4-methyl-N-(5-(trifluoromethyl)pyridin-3-yl)benzamide], for which the Ki at DDR2 is 5 to 25 nM; on DDR1, < 5 nM.
For `O=C(Nc1cncc(C(F)(F)F)c1)c1ccc(OC(F)F)c(C2CCN(c3cncnc3)C2)c1` (single isomer, unassigned) [Example 117, 4-(difluoromethoxy)-3-(1-(pyrimidin-5-yl)pyrrolidin-3-yl)-N-(5-(trifluoromethyl)pyridin-3-yl)benzamide] the same measures were < 5 nM and < 5 nM.
For `O=C(Nc1cncc(C(F)(F)F)c1)c1ccc(C(F)F)c(C2CCN(c3cncnc3)C2)c1` (stereo not drawn) [Example 120, 4-(difluoromethyl)-3-(1-(pyrimidin-5-yl)pyrrolidin-3-yl)-N-(5-(trifluoromethyl)pyridin-3-yl)benzamide] the same measures were 25 to 100 nM and 5 to 25 nM.
For `Cc1ccc(C(=O)Nc2cc(OC(F)(F)F)ccn2)cc1[C@@H]1CCN(c2cncnc2)C1` [Example 12, (S)-4-methyl-3-(1-(pyrimidin-5-yl)pyrrolidin-3-yl)-N-(4-(trifluoro-methoxy)pyridin-2-yl)benzamide] the same measures were < 5 nM and < 5 nM.
Take `COc1ccncc1N1CC[C@@H](c2cc(C(=O)Nc3cncc(C(F)(F)F)c3)ccc2C)C1` [Example 76, (S)-3-(1-(4-methoxypyridin-3-yl)pyrrolidin-3-yl)-4-methyl-N-(5-(trifluoromethyl)pyridin-3-yl)benzamide]: the Ki at DDR2 and at DDR1 was < 5 nM each time.
For `Cc1ccc(C(=O)Nc2cc(C(C)(C)C)nn2C)cc1[C@@H]1CCN(c2cncc(C(N)=O)c2)C1` [Example 5, (S)-5-(3-(5-((3-(tert-butyl)-1-methyl-1H-pyrazol-5-yl)carbamoyl)-2-methylphenyl)pyrrolidin-1-yl)nicotinamide], the Ki is 5 to 25 nM at DDR2 and < 5 nM on DDR1.
For `Cc1ccc(C(=O)Nc2cncc(C(F)(F)F)c2)cc1[C@@H]1CCN(c2cnccn2)C1` [Example 33, (S)-4-methyl-3-(1-(pyrazin-2-yl)pyrrolidin-3-yl)-N-(5-(trifluoromethyl)pyridin-3-yl)benzamide] the same measures were < 5 nM and < 5 nM.
Regarding `Cc1ccc(C(=O)Nc2cc(OC(F)F)ccn2)cc1[C@@H]1CCN(c2cnn3cccnc23)C1` [Example 91, N-[4-(difluoromethoxy)-2-pyridyl]-4-methyl-3-[(3S)-1-pyrazolo[1,5-a]pyrimidin-3-ylpyrrolidin-3-yl]benzamide], the Ki on DDR2 and at DDR1 was < 5 nM throughout.
Consider `CC(=O)Nc1cc(N2CC[C@@H](c3cc(C(=O)Nc4cncc(C(F)(F)F)c4)ccc3C)C2)ccn1` [Example 85, (S)-3-(1-(2-acetamidopyridin-4-yl)pyrrolidin-3-yl)-4-methyl-N-(5-(trifluoromethyl)pyridin-3-yl)benzamide], for which the inhibitory constant (Ki) is 5 to 25 nM on DDR2 and < 5 nM at DDR1.
Take `Cc1ccc(C(=O)Nc2cc(C(C)(C)C)n(C)n2)cc1[C@@H]1CCN(c2cncc(C(N)=O)c2)C1` [Example 3, (S)-5-(3-(5-((5-(tert-butyl)-1-methyl-1H-pyrazol-3-yl)carbamoyl)-2-methylphenyl)pyrrolidin-1-yl)nicotinamide]: the Ki on DDR2 and at DDR1 was < 5 nM throughout.
Turning to `COc1ccc(C(=O)Nc2cncc(C(F)(F)F)c2)cc1C1CCN(c2cnn3cccnc23)C1` (single isomer, unassigned) [Example 114, 4-methoxy-3-(1-(pyrazolo[1,5-a]pyrimidin-3-yl)pyrrolidin-3-yl)-N-(5-(trifluoromethyl)pyridin-3-yl)benzamide], the results for the Ki at DDR2 and on DDR1 were 5 to 25 nM and < 5 nM, respectively.
Taken in the same sequence, the figures for `Cc1ccc(C(=O)Nc2cncc(C(F)(F)F)c2)cc1[C@@H]1CCN(c2ncnc3ccsc23)C1` [Example 107, (S)-4-methyl-3-(1-(thieno[3,2-d]pyrimidin-4-yl)pyrrolidin-3-yl)-N-(5-(trifluoromethyl)pyridin-3-yl)benzamide] were < 5 nM and < 5 nM.
For `CNC(=O)c1cc(N2CC[C@@H](c3cc(C(=O)Nc4cncc(C(F)(F)F)c4)ccc3C)C2)ccn1` [Example 87, (S)-N-methyl-4-(3-(2-methyl-5-((5-(trifluoromethyl)pyridin-3-yl)carbamoyl)phenyl)pyrrolidin-1-yl)picolinamide] the same measures were 5 to 25 nM and < 5 nM.
Turning to `Cc1ccc(C(=O)Nc2cncc(OC(F)(F)F)c2)cc1[C@@H]1CCN(c2cncnc2)C1` [Example 18, (S)-4-methyl-3-(1-(pyrimidin-5-yl)pyrrolidin-3-yl)-N-(5-(trifluoromethoxy)pyridin-3-yl)benzamide], the Ki on DDR2 and on DDR1 was < 5 nM in each case.
As for `Cc1ccc(C(=O)Nc2cncc(C(F)(F)F)c2)cc1[C@@H]1CCN(c2cnc3[nH]cc(C(=O)NC4COC4)c3c2)C1` [Example 102, (S)-5-(3-(2-methyl-5-((5-(trifluoromethyl)pyridin-3-yl)carbamoyl)phenyl)pyrrolidin-1-yl)-N-(oxetan-3-yl)-1H-pyrrolo[2,3-b]pyridine-3-carboxamide], the results for the Ki at DDR2 and at DDR1 were 5 to 25 nM and < 5 nM, respectively.
Consider `CCc1cc(NC(=O)c2ccc(C)c([C@@H]3CCN(c4cnccc4C#N)C3)c2)no1` [Example 56, (S)-3-(1-(4-cyanopyridin-3-yl)pyrrolidin-3-yl)-N-(5-ethylisoxazol-3-yl)-4-methylbenzamide], for which the Ki at DDR2 and on DDR1 was < 5 nM throughout.
Take `Cc1ccc(C(=O)Nc2cc(C(C)(C)C(F)(F)F)on2)cc1[C@@H]1CCN(c2cnccn2)C1` [Example 58, (S)-4-methyl-3-(1-(pyrazin-2-yl)pyrrolidin-3-yl)-N-(5-(1,1,1-trifluoro-2-methylpropan-2-yl)isoxazol-3-yl)benzamide]: the Ki at DDR2 and on DDR1 was < 5 nM in each case.
On to `COc1ccc(C(=O)Nc2cncc(C(F)(F)F)c2)cc1C1CCN(c2cncnc2)C1` (single isomer, unassigned) [Example 109, 4-methoxy-3-(1-(pyrimidin-5-yl)pyrrolidin-3-yl)-N-(5-(trifluoromethyl)pyridin-3-yl)benzamide], for which the Ki at DDR2 and on DDR1 was < 5 nM in each case.
For the compound `NC(=O)c1cc(N2CCC(c3cc(C(=O)Nc4cncc(C(F)(F)F)c4)ccc3OC(F)F)C2)ccn1` (single isomer, unassigned) [Example 118, 4-(3-(2-(difluoromethoxy)-5-((5-(trifluoromethyl)pyridin-3-yl)carbamoyl)phenyl)pyrrolidin-1-yl)picolinamide], the inhibitory constant (Ki) at DDR2 was 5 to 25 nM; on DDR1, < 5 nM.
Taken in the same sequence, the figures for `Cc1ccc(C(=O)Nc2cc(OC(F)F)ccn2)cc1[C@@H]1CCN(c2cnccc2C#N)C1` [Example 93, 3-[(3S)-1-(4-cyano-3-pyridyl)pyrrolidin-3-yl]-N-[4-(difluoromethoxy)-2-pyridyl]-4-methyl-benzamide] were < 5 nM and < 5 nM.
